Experimental data taken from patent publication US9045491B2, “Thienyl [3,2-D] pyrimidin-4-one compounds, preparation method, pharmaceutical compositions and use thereof” (SHANGHAI INSTITUTE OF MATERIA MEDICA, CHINESE ACADEMY OF …, priority 2011, dated 2015).

Columns and labels:
Type in all cases: biochemical
[1] = target: T1, human DPP IV (Homo sapiens, UniProt P27487); assay: DPP IV activity screening (Ala-Pro-AMC fluorescence)
T1 construct: extracellular fragment of protease DPP IV (aa29-766); made in house; host or cells: baculovirus expression system Bac-to-Bac
Procedure, shortened: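 DPP IV activity is taken as the linear rate of fluorescence change at 460 nm. Samples are dissolved in DMSO and screened at a single concentration (e.g. 20 μg/mL). Dose-response data are fit to a variable-slope sigmoidal model with bottom and top fixed at 0 and 100.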

[2] = target: dipeptidyl peptidase 7 (DPP 7) (Homo sapiens, UniProt Q9UHL4); assay: DPP 7 activity screening; details: N.I. = No Inhibition
Procedure, shortened: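 Sample dissolved in DMSO, final DMSO kept at a level not affecting activity; tested at a single concentration from preliminary screening (e.g. 20 μg/mL). Dose-response data fitted to sigmoidal variable-slope model with bottom and top fixed at 0 and 100.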

[3] = target: T2, human DPP 8 (Homo sapiens, UniProt Q6V1X1); assay: DPP 8 activity screening (Ala-Pro-AMC fluorescence); details: N.I. = No Inhibition
T2 construct: made in house; host or cells: insect cells, baculovirus Bac-to-Bac
Procedure, shortened: (§1)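 Insect-cell baculovirus-expressed human enzymes hydrolyse Ala-Pro-AMC; AMC release monitored kinetically as fluorescence rate (ex 355/em 460 nm). Primary screen at a single concentration (e.g. 20 μg/mL); dose–response fitted to variable-slope sigmoid with bottom/top fixed at 0 and 100.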

[4] = target: T3, Human DPP 9 (Homo sapiens, UniProt Q86TI2); assay: DPP 9 activity screening (Ala-Pro-AMC fluorescence); details: N.I. = No Inhibition
T3 construct: made in house; host or cells: insect cells, baculovirus Bac-to-Bac
Procedure, shortened: as §1

[5] = target: T4, FAP (Homo sapiens, UniProt Q12884); assay: FAP inhibition (Table 1); details: N.I. = No Inhibition
T4 sequence (Q12884 1-760): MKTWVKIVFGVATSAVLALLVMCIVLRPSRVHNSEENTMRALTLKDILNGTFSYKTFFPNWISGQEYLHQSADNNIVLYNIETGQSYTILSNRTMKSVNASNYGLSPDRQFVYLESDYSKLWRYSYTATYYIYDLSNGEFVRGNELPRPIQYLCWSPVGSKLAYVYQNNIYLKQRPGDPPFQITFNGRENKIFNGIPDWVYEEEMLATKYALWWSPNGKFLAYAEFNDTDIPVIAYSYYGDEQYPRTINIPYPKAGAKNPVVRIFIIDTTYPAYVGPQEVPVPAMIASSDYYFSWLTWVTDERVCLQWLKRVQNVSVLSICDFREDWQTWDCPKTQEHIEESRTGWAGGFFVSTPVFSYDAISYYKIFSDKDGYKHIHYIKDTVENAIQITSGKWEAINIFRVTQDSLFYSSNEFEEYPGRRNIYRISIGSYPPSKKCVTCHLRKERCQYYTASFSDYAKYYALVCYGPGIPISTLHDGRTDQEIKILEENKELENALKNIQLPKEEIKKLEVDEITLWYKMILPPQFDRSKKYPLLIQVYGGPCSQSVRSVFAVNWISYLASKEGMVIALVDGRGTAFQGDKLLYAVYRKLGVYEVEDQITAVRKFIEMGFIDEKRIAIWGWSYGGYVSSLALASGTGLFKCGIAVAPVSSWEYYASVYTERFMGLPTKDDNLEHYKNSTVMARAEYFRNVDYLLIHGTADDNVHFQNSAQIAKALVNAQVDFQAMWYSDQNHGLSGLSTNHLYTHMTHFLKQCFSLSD

T3 sequence (Q86TI2 whole entry): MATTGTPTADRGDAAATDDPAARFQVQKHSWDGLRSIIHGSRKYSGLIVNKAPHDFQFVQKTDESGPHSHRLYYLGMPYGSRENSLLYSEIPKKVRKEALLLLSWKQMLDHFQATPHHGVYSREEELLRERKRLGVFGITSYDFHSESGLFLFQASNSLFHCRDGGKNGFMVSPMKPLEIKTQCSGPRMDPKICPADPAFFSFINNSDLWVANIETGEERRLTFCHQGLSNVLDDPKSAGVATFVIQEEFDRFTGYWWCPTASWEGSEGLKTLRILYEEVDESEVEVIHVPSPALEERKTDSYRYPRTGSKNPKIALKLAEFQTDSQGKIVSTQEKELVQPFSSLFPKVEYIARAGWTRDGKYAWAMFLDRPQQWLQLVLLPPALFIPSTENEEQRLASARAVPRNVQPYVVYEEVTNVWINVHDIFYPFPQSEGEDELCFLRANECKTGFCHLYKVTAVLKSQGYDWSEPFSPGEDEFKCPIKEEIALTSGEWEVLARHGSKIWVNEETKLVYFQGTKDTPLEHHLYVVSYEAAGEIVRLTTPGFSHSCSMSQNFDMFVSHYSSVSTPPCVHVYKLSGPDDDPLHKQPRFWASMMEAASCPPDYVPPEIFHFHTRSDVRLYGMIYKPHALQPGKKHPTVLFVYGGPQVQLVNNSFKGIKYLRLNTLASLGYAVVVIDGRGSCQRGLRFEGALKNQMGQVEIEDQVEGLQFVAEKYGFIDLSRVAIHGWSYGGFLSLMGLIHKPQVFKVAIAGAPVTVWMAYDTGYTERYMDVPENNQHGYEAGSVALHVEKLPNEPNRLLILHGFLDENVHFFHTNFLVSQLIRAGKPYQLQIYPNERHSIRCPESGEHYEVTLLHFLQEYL
T1 sequence (P27487 29-766): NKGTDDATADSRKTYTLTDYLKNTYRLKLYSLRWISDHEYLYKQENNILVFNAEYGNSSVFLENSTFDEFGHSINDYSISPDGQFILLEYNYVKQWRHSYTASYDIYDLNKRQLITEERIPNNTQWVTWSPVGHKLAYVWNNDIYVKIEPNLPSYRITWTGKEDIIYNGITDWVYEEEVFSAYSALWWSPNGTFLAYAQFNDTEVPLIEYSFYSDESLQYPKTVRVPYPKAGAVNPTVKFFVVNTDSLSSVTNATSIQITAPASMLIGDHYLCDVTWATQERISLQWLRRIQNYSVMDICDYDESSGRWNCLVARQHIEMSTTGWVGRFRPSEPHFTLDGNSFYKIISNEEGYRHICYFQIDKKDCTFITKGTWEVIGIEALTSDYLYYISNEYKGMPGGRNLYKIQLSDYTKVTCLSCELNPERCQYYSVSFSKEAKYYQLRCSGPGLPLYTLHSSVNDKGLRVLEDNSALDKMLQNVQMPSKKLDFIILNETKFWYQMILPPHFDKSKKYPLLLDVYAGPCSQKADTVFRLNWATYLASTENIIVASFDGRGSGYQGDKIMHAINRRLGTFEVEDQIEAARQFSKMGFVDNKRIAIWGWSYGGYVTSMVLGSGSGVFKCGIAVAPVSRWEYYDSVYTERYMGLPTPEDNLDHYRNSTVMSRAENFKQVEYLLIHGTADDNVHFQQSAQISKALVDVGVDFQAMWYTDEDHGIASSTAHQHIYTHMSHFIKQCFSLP
T2 sequence (Q6V1X1 whole entry): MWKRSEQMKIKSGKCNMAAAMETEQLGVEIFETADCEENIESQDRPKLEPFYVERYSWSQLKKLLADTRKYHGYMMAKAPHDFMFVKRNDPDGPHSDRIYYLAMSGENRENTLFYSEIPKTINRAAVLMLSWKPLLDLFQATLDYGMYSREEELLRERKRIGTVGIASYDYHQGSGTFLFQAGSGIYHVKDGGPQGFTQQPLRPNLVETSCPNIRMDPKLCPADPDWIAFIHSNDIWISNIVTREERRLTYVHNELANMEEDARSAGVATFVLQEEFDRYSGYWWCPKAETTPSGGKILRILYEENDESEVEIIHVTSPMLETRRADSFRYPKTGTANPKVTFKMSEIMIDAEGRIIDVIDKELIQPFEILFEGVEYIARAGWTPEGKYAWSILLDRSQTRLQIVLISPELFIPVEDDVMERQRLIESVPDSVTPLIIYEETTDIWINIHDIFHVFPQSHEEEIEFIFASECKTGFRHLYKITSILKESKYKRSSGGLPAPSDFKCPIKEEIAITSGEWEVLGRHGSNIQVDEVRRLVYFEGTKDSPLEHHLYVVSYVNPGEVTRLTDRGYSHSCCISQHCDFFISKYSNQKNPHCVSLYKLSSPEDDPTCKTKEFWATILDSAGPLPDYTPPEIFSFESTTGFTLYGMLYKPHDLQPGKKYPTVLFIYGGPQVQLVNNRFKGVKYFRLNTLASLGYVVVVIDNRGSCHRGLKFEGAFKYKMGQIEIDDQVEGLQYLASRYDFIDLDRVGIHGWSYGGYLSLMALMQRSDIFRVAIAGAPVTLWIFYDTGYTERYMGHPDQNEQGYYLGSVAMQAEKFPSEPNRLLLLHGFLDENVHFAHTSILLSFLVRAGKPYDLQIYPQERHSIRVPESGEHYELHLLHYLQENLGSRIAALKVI

| IC50 [1] | DPP 7 IC50 [2] | IC50 [3] | IC50 [4] | IC50 [5] | DPP 9 IC50 [4] | DPP 8 IC50 [3] | FAP IC50 [5] | SMILES |
| --- | --- | --- | --- | --- | --- | --- | --- | --- |
| 13.9 nM | N.I. | 45.9 µM | 254 µM | 30.3 µM |  |  |  | CNC(=O)c1csc2c(=O)n(Cc3ccccc3C#N)c(N3CCC[C@@H](N)C3)nc12 [Compound 61, (R)-2-(3-aminopiperidin-1-yl)-3-(2-cyanobenzyl)-N-methyl-4-oxo-3,4-dihydrothieno[3,2-d]pyrimidine-7-carboxamide] |
| 8.15 nM | N.I. | 23 µM | 91.7 µM | 28.3 µM |  |  |  | COCCCNC(=O)c1csc2c(=O)n(Cc3ccccc3C#N)c(N3CCC[C@@H](N)C3)nc12 [Compound 75, (R)-2-(3-aminopiperidin-1-yl)-3-(2-cyanobenzyl)-N-(3-methoxypropyl)-4-oxo-3,4-dihydrothieno[3,2-d]pyrimidine-7-carboxamide] |
| 24.2 nM | N.I. | 62 µM |  | 91.3 µM | N.I. |  |  | N#Cc1ccccc1Cn1c(N2CCC[C@@H](N)C2)nc2c(N)csc2c1=O [Compound 84, (R)-2-((7-amino-2-(3-aminopiperidin-1-yl)-4-oxothieno[3,2-d]pyrimidin-3(4H)-yl)methyl)benzonitriIe] |
| 27.5 nM | N.I. | 47.9 µM | 189 µM | 170 µM |  |  |  | CN(C)C(=O)c1csc2c(=O)n(Cc3ccccc3C#N)c(N3CCC[C@@H](N)C3)nc12 [Compound 63, (R)-2-(3-aminopiperidin-1-yl)-3-(2-cyanobenzyl)-N,N-dimethyl-4-oxo-3,4-dihydrothieno[3,2-d]pyrimidine-7-carboxamide] |
| 18.3 nM | N.I. |  | 266 µM | 213 µM |  | N.I. |  | N#Cc1ccccc1Cn1c(N2CCC[C@@H](N)C2)nc2cc(C(=O)NC3CC3)sc2c1=O [Compound 40, (R)-2-(3-aminopiperidin-1-yl)-3-(2-cyanobenzyl)-N-cyclopropyl-4-oxo-3,4-dihydrothieno[3,2-d]pyrimidine-6-carboxamide] |
| 17.1 nM | N.I. |  | 254 µM | 239 µM |  | N.I. |  | CNC(=O)c1cc2nc(N3CCC[C@@H](N)C3)n(Cc3ccccc3C#N)c(=O)c2s1 [Compound 104, (R)-2-(3-aminopiperidin-1-yl)-3-(2-cyanobenzyl)-N-methyl-4-oxo-3,4-dihydrothieno[3,2-d]pyrimidine-6-carboxamide] |
| 27 nM | N.I. |  | 257 µM | 200 µM |  | N.I. |  | CN(C)C(=O)c1cc2nc(N3CCC[C@@H](N)C3)n(Cc3ccccc3C#N)c(=O)c2s1 [Compound 105, (R)-2-(3-aminopiperidin-1-yl)-3-(2-cyanobenzyl)-N,N-dimethyl-4-oxo-3,4-dihydrothieno[3,2-d]pyrimidine-6-carboxamide] |
| 24.8 nM | N.I. | 80.6 µM | 51.2 µM | 133 µM |  |  |  | N#Cc1ccccc1Cn1c(N2CCC[C@@H](N)C2)nc2cc(C(=O)NCc3ccccc3Cl)sc2c1=O [Compound 110, (R)-2-(3-aminopiperidin-1-yl)-N-(2-chlorobenzyl)-3-(2-cyanobenzyl)-4-oxo-3,4-dihydrothieno[3,2-d]pyrimidine-6-carboxamide] |
| 81.6 nM | N.I. |  |  |  | N.I. | N.I. | N.I. | N#Cc1ccccc1Cn1c(N2CCC[C@@H](N)C2)nc2c(C(=O)N3CCCC3)csc2c1=O [Compound 76, (R)-2-((2-(3-aminopiperidin-1-yl)-4-oxo-7-(pyrrolidine-1-carbonyl)thieno-[3,2-d]pyrimidin-3(4H)-yl)methyl)-benzonitrile] |
